Reference: US10028966B2 (Avalyn Pharma Inc., priority 2014, dated 2018)
Values after ≈ are worked out from the molar mass of the structure shown. Where two headings read alike, the source gives them in different places.

What was measured:
[1] = system: inflammasome activation in 264.7 macrophages; experiment: Inflammasome second signal activation (ATP, secreted IL-1β); type: cell-based; conditions: for IL-1β: LPS +, ATP +; for IC50: Macrophage
[2] = system: normal human pulmonary fibroblasts; experiment: TGFβ1-induced fibroblast differentiation; type: cell-based; conditions: for IC50: Homo sapiens, Pulmonary fibroblast, read-out: IC50, TGFβ-induced fibroblast differentiation; for αSMA (Fluorescence): TGFβ +
Method: Briefly, 20 000 cells per well were seeded in black 96 well collagen coated plates and incubate overnight (approximately 24 hours) to allow adherence. […] Cultures were then incubated for 48 hours. […] Separate controls were included for diluted cultures containing TGFβ1 or media alone. At the end of incubation, cells were fixed and stained for imaging and fluorescence plate reader quantitation. Parallel cultures were assessed for cytotoxicity using the MTS dye assay.

[3] = Co-solvent and surfactant effects on pirfenidone saturation solubility; type: physicochemical; conditions: aqueous co-solvent/surfactant solvent system, thermodynamic from solid;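 also: samples equilibrated by overnight agitation at ambient temperature, with solubility taken from the supernatant after undissolved solid was removed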
Method: Each sample was agitated at ambient temperature overnight. The samples were visually inspected and appearance recorded. Samples were centrifuged to sediment any un-dissolved material and the supernatant withdrawn via syringe through a 0.22 μm PVDF filter. […] The remaining filtered sample was split into three equal volumes in glass vials and placed at 25° C./60 RH, 40° C./75 RH and refrigeration. Samples are wrapped in aluminum foil to reduce light exposure. After the first night of incubation, samples are briefly visually inspected for any signs of discoloration or precipitate formation.

Compound: Cc1ccc(=O)n(-c2ccccc2)c1 [pirfenidone, 5-methyl-1-phenyl-2-(1H)-pyridone]
- IL-1β ([1]; Longer-term exposure, 40 min > ATP, pirfenidone 5 mcg/mL): 1.4 pg/mL
- IL-1β ([1]; Longer-term exposure, 40 min > ATP, pirfenidone 25 mcg/mL): 1.1 pg/mL
- IL-1β ([1]; Longer-term exposure, 40 min > ATP, pirfenidone 125 mcg/mL): 0.9 pg/mL
- IL-1β ([1]; Longer-term exposure, 40 min > ATP, pirfenidone 625 mcg/mL): 0.4 pg/mL
- IC50 ([1]; 40 min, second (40 minute) sampling point alone, short-term exposure): ~25 µg/mL (≈ 0.135 mM)
- IC50 ([1]; sum of short-term sampling points and longer-term sampling point): ~625 µg/mL (≈ 3.37 mM)
- IL-1β ([1]; Short-term exposure, 10 + 40 min > ATP (sum of sampling points), pirfenidone 5 mcg/mL): 1.1 pg/mL
- IL-1β ([1]; Short-term exposure, 10 + 40 min > ATP (sum of sampling points), pirfenidone 25 mcg/mL): 1.0 pg/mL
- IL-1β ([1]; Short-term exposure, 10 + 40 min > ATP (sum of sampling points), pirfenidone 125 mcg/mL): 1.0 pg/mL
- IL-1β ([1]; Short-term exposure, 10 + 40 min > ATP (sum of sampling points), pirfenidone 625 mcg/mL): 0.6 pg/mL
- IL-1β ([1]; Short-term exposure, 10 min > ATP, pirfenidone 5 mcg/mL): 81.5 pg/mL
- IL-1β ([1]; Short-term exposure, 10 min > ATP, pirfenidone 25 mcg/mL): 100.0 pg/mL
- IL-1β ([1]; Short-term exposure, 10 min > ATP, pirfenidone 125 mcg/mL): 118.7 pg/mL
- IL-1β ([1]; Short-term exposure, 10 min > ATP, pirfenidone 625 mcg/mL): 66.3 pg/mL
- IL-1β ([1]; Short-term exposure, 40 min > ATP, pirfenidone 5 mcg/mL): 95.8 pg/mL
- IL-1β ([1]; Short-term exposure, 40 min > ATP, pirfenidone 25 mcg/mL): 50.4 pg/mL
- IL-1β ([1]; Short-term exposure, 40 min > ATP, pirfenidone 125 mcg/mL): 36.3 pg/mL
- IL-1β ([1]; Short-term exposure, 40 min > ATP, pirfenidone 625 mcg/mL): 27.3 pg/mL
- IC50 ([2]; 48 h): ~25 µg/mL (≈ 0.135 mM)
- IC50 [2]: ~125 µg/mL (≈ 0.675 mM)
- αSMA (Fluorescence) ([2]; Table 36, Long-term exposure (48 hours), pirfenidone 5 mcg/mL): 4.72
- αSMA (Fluorescence) ([2]; Table 36, Long-term exposure (48 hours), pirfenidone 25 mcg/mL): 4.04
- αSMA (Fluorescence) ([2]; Table 36, Long-term exposure (48 hours), pirfenidone 125 mcg/mL): 3.15
- αSMA (Fluorescence) ([2]; Table 36, Long-term exposure (48 hours), pirfenidone 625 mcg/mL): 2.47
- αSMA (Fluorescence) ([2]; Table 36, Short-term exposure, pirfenidone 5 mcg/mL): 6.76
- αSMA (Fluorescence) ([2]; Table 36, Short-term exposure, pirfenidone 25 mcg/mL): 5.34
- αSMA (Fluorescence) ([2]; Table 36, Short-term exposure, pirfenidone 625 mcg/mL): 3.57
- αSMA (Fluorescence) ([2]; Table 37 (broader dose-response), Short-term exposure, pirfenidone 1 mcg/mL): 7.65
- αSMA (Fluorescence) ([2]; Table 37 (broader dose-response), Short-term exposure, pirfenidone 10 mcg/mL): 7.75
- αSMA (Fluorescence) ([2]; Table 37 (broader dose-response), Short-term exposure, pirfenidone 100 mcg/mL): 5.61
- αSMA (Fluorescence) ([2]; Table 37 (broader dose-response), Short-term exposure, pirfenidone 1000 mcg/mL): 2.27
- solubility ([3]; pH 4.4, aqueous with cosolvent or surfactant or cyclodextrin, 4% Gly, 0.04% PS80, 96.0% citrate buffer (10 mM), pH 4.4): 17.6 mg/mL (≈ 95 mM)
- solubility ([3]; pH 4.5, aqueous with cosolvent or surfactant or cyclodextrin, 4% EtOH, 0.04% PS80, 96.0% citrate buffer (10 mM), pH 4.5): 21.9 mg/mL (≈ 118 mM)
- solubility ([3]; pH 4.5, aqueous with cosolvent or surfactant or cyclodextrin, 4% EtOH, 0.1% CPB, 95.9% citrate buffer (10 mM), pH 4.5): 20.4 mg/mL (≈ 110 mM)
- solubility ([3]; pH 4.5, aqueous with cosolvent or surfactant or cyclodextrin, 8% PG, 0.04% PS80, 92.0% citrate buffer (10 mM), pH 4.5): 23.2 mg/mL (≈ 125 mM)
- solubility ([3]; pH 4.5, aqueous with cosolvent or surfactant or cyclodextrin, 8% PG, 0.1% CPB, 91.9% citrate buffer (10 mM), pH 4.5): 21 mg/mL (≈ 113 mM)
- solubility ([3]; pH 4.6, aqueous with cosolvent or surfactant or cyclodextrin, 8% PG, 0.04% PS80, 92.0% water, pH 4.6): 23.4 mg/mL (≈ 126 mM)
- solubility ([3]; pH 4.7, aqueous with cosolvent or surfactant or cyclodextrin, 4% EtOH, 0.04% PS80, 96.0% water, pH 4.7): 22.5 mg/mL (≈ 121 mM)
- solubility ([3]; pH 4.9, aqueous with cosolvent or surfactant or cyclodextrin, 4% EtOH, 0.1% CPB, 95.9% water, pH 4.9): 20.2 mg/mL (≈ 109 mM)
- solubility ([3]; pH 4.9, aqueous with cosolvent or surfactant or cyclodextrin, 4% Gly, 0.04% PS80, 96.0% water, pH 4.9): 20 mg/mL (≈ 108 mM)
- solubility ([3]; pH 5, aqueous with cosolvent or surfactant or cyclodextrin, 8% PG, 0.1% CPB, 91.9% water, pH 5.0): 22.3 mg/mL (≈ 120 mM)
- solubility ([3]; pH 5.8, aqueous with cosolvent or surfactant or cyclodextrin, 4% EtOH, 8% PG, 0.04% PS80, 88.0% water, pH 5.8): 28.9 mg/mL (≈ 156 mM)
- solubility ([3]; pH 6.1, aqueous with cosolvent or surfactant or cyclodextrin, 4% EtOH, 0.1% CPB, 95.9% water, pH 6.1): 23.9 mg/mL (≈ 129 mM)
- solubility ([3]; pH 6.2, aqueous with cosolvent or surfactant or cyclodextrin, 0.1% CPB, 99.9% water, pH 6.2): 20 mg/mL (≈ 108 mM)
- solubility ([3]; pH 6.2, aqueous with cosolvent or surfactant or cyclodextrin, 4% EtOH, 8% PG, 88.0% water, pH 6.2): 30 mg/mL (≈ 162 mM)
- solubility ([3]; pH 6.2, aqueous with cosolvent or surfactant or cyclodextrin, 8% PG, 0.1% CPB, 91.9% water, pH 6.2): 23.4 mg/mL (≈ 126 mM)
- solubility ([3]; pH 6.5, aqueous with cosolvent or surfactant or cyclodextrin, 0.04% PS80, 100.0% water, pH 6.5): 19.9 mg/mL (≈ 107 mM)
- solubility ([3]; pH 6.5, aqueous with cosolvent or surfactant or cyclodextrin, 4% Gly, 0.04% PS80, 96.0% water, pH 6.5): 20.2 mg/mL (≈ 109 mM)
- solubility ([3]; pH 6.6, aqueous with cosolvent or surfactant or cyclodextrin, 4% EtOH, 8% PG, 0.04% PS80, 88.0% phosphate buffer (5 mM), pH 6.6): 29.4 mg/mL (≈ 159 mM)
- solubility ([3]; pH 6.6, aqueous with cosolvent or surfactant or cyclodextrin, 4% EtOH, 8% PG, 88.0% phosphate buffer (5 mM), pH 6.6): 27.2 mg/mL (≈ 147 mM)
